Data on 15 molecules can be found in patent publication US11407719B2, “Anti-inflammatory agents” (Resverlogix Corp., priority 2009, dated 2022).

This assay concerns hIL-6 mRNA. In words: Quantification of hIL-6 mRNA. The assay is classed as cell-based, human. Also on record: key: Active: an active compound is one that causes a ≥20% inhibition in IL-6 mRNA at a concentration less than or equal to 10 μM. The following applies: IL-6 mRNA by real-time PCR; differentiated U937 cells, 1 h pretreatment, lipopolysaccharide stimulation 3 h; concentration ≤10 μM. As to the method:
In this example, […] in tissue culture cells was quantitated to measure the transcriptional inhibition of hIL-6 when treated with a compound of the invention.
A human leukemic monocyte lymphoma cell line (U937) was plated (3.2×10^5 cells per well) in a 96-well plate in 100 μL RPMI-1640, and differentiated for 3 days prior to the addition of the compound of interest. The cells were pretreated for 1 h with the test compound prior to stimulation with lipolysaccharide from Escherichia coli. The cells were incubated at 37° C. for 3 h before the cells were harvested. At time of harvest, the spent media was removed from the cells and the cells were rinsed in 200 μL PBS. Cell lysis solution (70 μL) was added the cells in each well and incubated for 5-10 min at room temperature, to allow for complete cell lysis and detachment. mRNA was then prepared using the “mRNA Catcher PLUS plate” (Invitrogen), according to the protocol supplied. After the last wash, as much wash buffer as possible was aspirated without allowing the wells to dry. Elution buffer (E3, 70 μL) was then added to each well. mRNA was then eluted by incubating the mRNA Catcher PLUS plate with Elution Buffer for 5 min at 68° C. and then immediately placing the plate on ice.
The eluted mRNA isolated was then used in a one-step quantitative real-time PCR reaction, using components of the Ultra Sense Kit together with Applied Biosystems primer-probe mixes. Real-time PCR data was analyzed, normalizing the Ct values for hIL-6 to an internal control, prior to determining the fold induction of each unknown sample, relative to the control.

With `COc1cc(OC)c2c(=O)[nH]c(-c3ccc4[nH]c(CCO)cc4c3)nc2c1` [2-(2-(2-Hydroxyethyl)-1H-indol-5-yl)-5,7-dimethoxyquinazolin-4(3H)-one], the “Inhibition of IL-6 expression” value was “Active”.

As for `COc1cc(OC)c2c(=O)[nH]c(-c3cc(C)c(OCCN4C(=O)c5ccccc5C4=O)c(C)c3)cc2c1` [2-(2-(4-(6,8-Dimethoxy-1-oxo-1,2-dihydroisoquinolin-3-yl)-2,6-dimethylphenoxy)ethyl)isoindoline-1,3-dione], the “Inhibition of IL-6 expression” value is on record as “Active”.

Consider `COc1cc(OC)c2c(=O)[nH]c(-c3ccc4[nH]c(CO)cc4c3)nc2c1` [2-(2-(Hydroxymethyl)-1H-indol-5-yl)-5,7-dimethoxyquinazolin-4(3H)-one], for which the “Inhibition of IL-6 expression” value is reported as “Active”.

With `Cc1cc(-c2nc3nc(OC(C)C)cc(OC(C)C)c3c(=O)[nH]2)cc(C)c1OCCN1CCCC1` [2-(3,5-Dimethyl-4-(2-(pyrrolidin-1-yl)ethoxy)phenyl)-5,7-diisopropoxypyrido[2,3-d]pyrimidin-4(3H)-one], the “Inhibition of IL-6 expression” value is listed as “Active”.

Take `COc1cc(OC)c2c(=O)[nH]c(-c3cc(C)c(OCCCN4CCCC4)c(C)c3)nc2c1` [2-(3,5-Dimethyl-4-(3-(pyrrolidin-1-yl)propoxy)phenyl)-5,7-dimethoxyquinazolin-4(3H)-one]: the “Inhibition of IL-6 expression” value was “Active”.

For the molecule `COc1cc(OC)c2c(=O)[nH]c(-c3ccc4[nH]nc(CO)c4c3)nc2c1` [2-(3-(Hydroxymethyl)-1H-indazol-5-yl)-5,7-dimethoxyquinazolin-4(3H)-one], the “Inhibition of IL-6 expression” value is listed as “Active”.

For `COc1cc(OC)c2c(=O)[nH]c(-c3ccc(OC4CCN(C(C)=O)CC4)cc3)nc2c1` [2-(4-(1-Acetylpiperidin-4-yloxy)phenyl)-5,7-dimethoxyquinazolin-4(3H)-one], the “Inhibition of IL-6 expression” value is on record as “Active”.

As for `COc1cc(OC)c2c(=O)[nH]c(-c3ccc(C4CCN(C(C)=O)CC4)cc3)nc2c1` [2-(4-(1-acetylpiperidin-4-yl)phenyl)-5,7-dimethoxyquinazolin-4(3H)-one], the “Inhibition of IL-6 expression” value was “Active”.

In the case of `COc1cc(OC)c2c(=O)[nH]c(-c3ccc(N4CCN(Cc5ccc(F)cc5)CC4)cc3)nc2c1` [2-(4-(4-(4-Fluorobenzyl)piperazin-1-yl)phenyl)-5,7-dimethoxyquinazolin-4(3H)-one], the “Inhibition of IL-6 expression” value is on record as “Active”.

With `COc1cc(OC)c2c(=O)[nH]c(-c3ccc(N4CCC(NC(C)C)CC4)cc3)nc2c1` [2-(4-(4-(Isopropylamino)piperidin-1-yl)phenyl)-5,7-dimethoxyquinazolin-4(3H)-one], the “Inhibition of IL-6 expression” value was “Active”.

On to `COc1cc(OC)c2c(=O)[nH]c(-c3ccc(N4CCCN(C(C)=O)CC4)cc3)nc2c1` [2-(4-(4-Acetyl-1,4-diazepan-1-yl)phenyl)-5,7-dimethoxyquinazolin-4(3H)-one], for which the “Inhibition of IL-6 expression” value is “Active”.

As for `COc1cc(OC)c2c(=O)[nH]c(-c3ccc(N4CCN(Cc5ccccc5)CC4)cc3)nc2c1` [2-(4-(4-Benzylpiperazin-1-yl)phenyl)-5,7-dimethoxyquinazolin-4(3H)-one], the “Inhibition of IL-6 expression” value is listed as “Active”.

As to `COc1cc(OC)c2c(=O)[nH]c(-c3ccc(N4CCN(C(=O)c5ccncc5)CC4)cc3)nc2c1` [2-(4-(4-Isonicotinoylpiperazin-1-yl)phenyl)-5,7-dimethoxyquinazolin-4(3H)-one], the “Inhibition of IL-6 expression” value is given as “Active”.

Regarding `COc1cc(OC)c2c(=O)[nH]c(-c3ccc(N4C[C@@H](C)N(C(C)=O)[C@@H](C)C4)cc3)nc2n1` [2-(4-((3R,5S)-4-Acetyl-3,5-dimethylpiperazin-1-yl)phenyl)-5,7-dimethoxypyrido[2,3-d]pyrimidin-4(3H)-one], the “Inhibition of IL-6 expression” value is given as “Active”.

In the case of `COc1cc(OC)c2c(=O)[nH]c(-c3ccc(N4C[C@@H](C)N(C(C)C)[C@@H](C)C4)cc3)nc2c1` [2-(4-((3R,5S)-4-Isopropyl-3,5-dimethylpiperazin-1-yl)phenyl)-5,7-dimethoxyquinazolin-4(3H)-one], the “Inhibition of IL-6 expression” value is “Active”.
